Measurements reported in publication PMC7721897, “Metabolism and pharmacokinetics of a novel polyphenol fatty acid ester phloridzin docosahexaenoate in Balb/c female mice” (Scientific Reports, 2020).
Read-outs that look alike come from different tables or passages of the source.

Legend:
[1] = test system: MDA-MB-468 cells; test: Cellular uptake assay (UPLC-ESI-MS/MS of cell lysates); format: cell-based, human; conditions: 20 μM, 72 h
Experimental: (§1) Figure 1 Conjugation of PZ with DHA increases the cellular uptake and stability of PZ and DHA. The cells were treated with 20 μM of PZ, DHA or PZ-DHA and cultured for 72 h at 37 °C. Cells were harvested and washed thoroughly using cold PBS. Cells were lysed in cold acetone containing 0.05 mg/mL quercetin, and cell lysates were collected by centrifugation and analyzed by using UPLC-ESI-MS/MS. (A) mean % cellular uptake of PZ, DHA and PZ-DHA. (B) fold increase in intracellular PZ and DHA when conjugated. ANOVA multiple means statistical comparison method was performed and differences among means were compared using Tukey’s test; *p < 0.05. (MDA-MB-231 p = 0.008; MDA-MB-468 p = 0.01; 4T1 p = 0.02; MCF-7 p = 0.01; MCF-10A p = 0.0005).
(§2) Cells were seeded at a density of 3 × 10^5 cells (MDA-MB-231, MDA-MB-468, MCF-7, and MCF-10A) or 1 × 10^5 cells (4T1) /T-75 flask. The cells were cultured overnight to promote cell adhesion. Adherent cells were treated with a sub-cytotoxic concentration (20 μM) of PZ, DHA or PZ-DHA and cultured for 72 h at 37 °C. The supernatant was carefully removed, and cell monolayers were washed with cold PBS. Cells were harvested using TrypLE Express and washed thoroughly with cold PBS. […] The sample was analyzed using a UPLC/ESI/MS system. The percentage cell uptake of the total dose was quantified using standard curves of PZ (R^2 = 0.99), DHA (R^2 = 0.98) or PZ-DHA (R^2 = 0.99) made in methanol.
(§3) PZ-DHA and/or PZ-DHA metabolites in malignant/non-malignant epithelial cell lysates, in vitro microsome enzyme reaction mixtures, and mouse serum aliquots were determined using UPLC-ESI–MS/MS instrument (Waters Limited, Mississauga, ON, Canada). All mass spectroscopic analyses were performed using mass scan (full-scan, identification of unknowns) and single ion monitoring (SIM; quantification of PZ, DHA, PZ-DHA, and quercetin) modes of a Waters H-class UPLC separations module coupled with a Micromass Quattro micro API MS/MS system and MassLynx V4.0 control software. […]

[2] = test system: MCF-10A cells; test: as above; format: cell-based, human; conditions: 20 μM, 72 h
Experimental: as §1, §2, §3

[3] = test system: MCF-7 cells; test: as above; format: cell-based, human; conditions: 20 μM, 72 h
Experimental: as §1, §2, §3

[4] = test system: mammary carcinoma cells (MDA-MB-231, MDA-MB-468, 4T1, MCF-7) and MCF-10A; parameters: method as in PMID 27535497; conditions: cited from earlier work
[5] = Tissue distribution of PZ-DHA and metabolites after intraperitoneal injection; format: in vivo, Balb/c female mice; conditions: female, Balb/c, mouse, intraperitoneal, 100 mg/kg
Experimental: Figure 5 PZ-DHA and metabolites were detected in various organs of PZ-DHA-treated Balb/c female mice. PZ-DHA (100 mg/kg) was administered by intraperitoneal injection to Balb/c female mice and liver, lungs, kidneys, spleen and brain were harvested. Organs were homogenized and PZ-DHA in (A) liver, kidneys, lungs, spleen, and brain was identified and quantified using a calibration curve. The abundance of (B) 4,4′,6′-tri-O-methyl-phloridzin docosahexaenoate in liver, kidneys, lungs, and serum) and (C) phloridzin docosahexaenoate-4,4′-di-O-sulphide in the liver was determined in PZ-DHA equivalence.
Pharmacokinetic parameters and in vivo generation of PZ-DHA metabolites were studied using Balb/c female mice. Mice were randomly divided into six groups (n = 4/group) and PZ-DHA (100 mg/kg) was administered by intraperitoneal injection. For each mouse, a single blood collection was performed by cardiac puncture at one of six different time points (t = 15, 30, 60, 90, 120, and 240 min). At the end of blood collection, mice were euthanized by cervical dislocation and organs (liver, lungs, kidneys, spleen, and brain) were harvested. Blood samples were allowed to clot by leaving undisturbed at room temperature for 1 h, and serum was separated by centrifuging at 2000×g for 10 min at 4 °C. The serum was carefully removed and stored on ice until further processing. Serum proteins were precipitated by incubating an aliquot of serum with a mixture of acetonitrile:acetone (80:20) containing 0.1 mg/mL quercetin (internal standard) at 4 °C overnight. The supernatant was separated by centrifuging at 14,000×g for 10 min at 4 °C. Excess solvent was evaporated using nitrogen flush and mixed with methanol and filtered. PZ-DHA-metabolites in the filtrate were identified using a UPLC-ESI–MS/MS (Waters Limited, Mississauga, ON, Canada). Organs were homogenized in PBS (1:5 w/v). Supernatants were collected by centrifugation at 14,000 × g for 15 min at 4 °C. Proteins were precipitated by incubating in acetonitrile:acetone (80:20) containing 0.1 mg/mL quercetin (internal standard) at 4 °C overnight. Supernatants were treated as explained above, and PZ-DHA and/or PZ-DHA-metabolites were identified.

[6] = brain/serum, read-out: Tissue/serum ratio of PZ-DHA (Mean ± SD) Brain/serum
[7] = kidneys/serum, read-out: Tissue/serum ratio of PZ-DHA (Mean ± SD) Kidneys/serum
[8] = liver/serum, read-out: Tissue/serum ratio of PZ-DHA (Mean ± SD) Liver/serum
[9] = lungs/serum, read-out: Tissue/serum ratio of PZ-DHA (Mean ± SD) Lungs/serum
[10] = spleen/serum, read-out: Tissue/serum ratio of PZ-DHA (Mean ± SD) Spleen/serum

Structure (SMILES): CC/C=C\C/C=C\C/C=C\C/C=C\C/C=C\C/C=C\CCC(=O)OC[C@H]1O[C@@H](Oc2cc(O)cc(O)c2C(=O)CCc2ccc(O)cc2)[C@H](O)[C@@H](O)[C@@H]1O [PZ-DHA, phloridzin docosahexaenoate]
- cellular uptake (as a % of the dose) [1]: 50%
- PZ-DHA uptake and fold-increase in intracellular PZ and DHA versus the malignant cells [2]: similar
- cellular uptake (as a % of the dose) [3]: 21%
- selective cytotoxicity, malignant versus non-malignant cells [4]: selectively kills mammary carcinoma cells
- Kp at 15 min [5, 6]: 0.51 ± 0.17
- Kp at 30 min [5, 6]: 0.64 ± 0.11
- Kp at 60 min [5, 6]: 0.95 ± 0.68
- Kp at 90 min [5, 6]: 1.01 ± 0.19
- Kp at 120 min [5, 6]: 1.31 ± 0.67
- Kp at 240 min [5, 6]: 1.94 ± 0.75
- Kp at 15 min [5, 7]: 0.66 ± 0.03
- Kp at 30 min [5, 7]: 1.29 ± 0.22
- Kp at 60 min [5, 7]: 0.81 ± 0.34
- Kp at 90 min [5, 7]: 0.89 ± 0.26
- Kp at 120 min [5, 7]: 2.71 ± 1.41
- Kp at 240 min [5, 7]: 2.71 ± 1.08
- Kp at 15 min [5, 8]: 0.14 ± 0.06
- Kp at 30 min [5, 8]: 0.16 ± 0.08
- Kp at 60 min [5, 8]: 4.68 ± 2.02
- Kp at 90 min [5, 8]: 2.69 ± 2.17
- Kp at 120 min [5, 8]: 1.03 ± 0.73
- Kp at 240 min [5, 8]: 0.99 ± 0.23
- Kp at 15 min [5, 9]: 3.33 ± 1.51
- Kp at 30 min [5, 9]: 2.04 ± 1.09
- Kp at 60 min [5, 9]: 1.05 ± 0.014
- Kp at 90 min [5, 9]: 3.51 ± 2.44
- Kp at 120 min [5, 9]: 3.82 ± 1.74
- Kp at 240 min [5, 9]: 4.97 ± 1.37
- Kp at 15 min [5, 10]: 3.29 ± 1.56
- Kp at 30 min [5, 10]: 3.17 ± 0.72
- Kp at 60 min [5, 10]: 4.18 ± 1.01
- Kp at 90 min [5, 10]: 5.24 ± 1.75
- Kp at 120 min [5, 10]: 10.9 ± 8.42
- Kp at 240 min [5, 10]: 16.1 ± 5.98
